# According to patent US20180238860A1, “INDIVIDUAL METHOD PREDICTIVE OF THE DNA-BREAKING GENOTOXIC EFFECTS OF CHEMICAL OR BIOCHEMICAL AGENTS” (priority 2015, published 2018):
# Columns and labels:
# Assay type in all cases: cell-based, human
# 01PAU cells [1] = assay: pH2AX foci 24 h after contacting, 01PAU
# Experimental: (§1) In one embodiment, on receipt, the tissue sample (typically the biopsy) is established in the form of an amplifiable cell line without a viral or chemical transformation agent according to an ancillary procedure well known to culture laboratories, as underlined by the publication of Elkind et al. “The radiobiology of cultured mammalian cell”, Gordon and Breach (1967). Once the number of cells is sufficient (typically after 1 to 3 weeks), the first experiments are carried out using the process according to the invention. A cell sample is prepared: The cells are inoculated on glass coverslips in Petri dishes. A portion of these coverslips are contaminated with metals or pesticides or any other DNA-breaking chemical or biochemical agent at different concentrations. A further portion is not contaminated; it represents the spontaneous state. During contamination, the cells remain in the culture incubator at 37° C.
# (§2) For the contaminated cells, characteristics are acquired corresponding to the state after an incubation time with the DNA-breaking chemical or biochemical agent. Said characteristics are represented by foci corresponding to the marker pH2AX. The cells on glass coverslips are then fixed, lysed and hybridized. The following procedure, known per se (Bodgi et al, “A single formula to describe radiation-induced protein relocalization: towards a mathematical definition of individual radiosensitivity”, J Theor Biol. 21 p 333:135-45.2013):
# the cells are fixed in 3% paraformaldehyde and 2% sucrose for 15 minutes at ambient temperature and permeabilized in 20 mM HEPES buffer solution (4-(2-hydroxyethyl)-1-piperazine ethane sulfonic acid) at pH 7.4, 50 mM NaCl, 3 mM MgCl2, 300 mM sucrose, 0.5% Triton X-100 (a non-ionic surfactant having the formula t-Oct-C6H4-(OCH2CH2)×OH where x=9-10, CAS No. 9002-93-1, supplied for example by Sigma Aldrich) for 3 minutes. The glass coverslips are then washed in phosphate buffer saline (known as the acronym PBS) before immunological staining. The incubation took place for 40 min at 37° C. in PBS supplemented with 2% bovine serum albumin (known as the acronym BSA or fraction V, supplied for example by Sigma Aldrich) and was followed by a wash with PBS. Anti-pH2AX primary antibodies are used at a concentration of 1:800. […]
# The results are acquired using these coverslips on an immunofluorescence microscope (Olympus model for example). The reading may be direct (typically by counting the foci on at least 50 cells in G0/G1 for each point) or using dedicated image analysis software, or on an automated microscope; preferably the software or automated microscope methods are calibrated with manual determinations. […]
# 01PAU cells [2] = assay: Micronuclei per 100 cells 24 h after contacting, 01PAU
# Experimental: as §1
# (§3) the cells are fixed in 3% paraformaldehyde and 2% sucrose for 15 minutes at ambient temperature and permeabilized in 20 mM HEPES buffer solution (4-(2-hydroxyethyl)-1-piperazine ethane sulfonic acid) at pH 7.4, 50 mM NaCl, 3 mM MgCl2, 300 mM sucrose, 0.5% Triton X-100 (a non-ionic surfactant having the formula t-Oct-C6H4-(OCH2CH2)×OH where x=9-10, CAS No. 9002-93-1, supplied for example by Sigma Aldrich) for 3 minutes. The glass coverslips are then washed in phosphate buffer saline (known as the acronym PBS) before immunological staining. The incubation took place for 40 min at 37° C. in PBS supplemented with 2% bovine serum albumin (known as the acronym BSA or fraction V, supplied for example by Sigma Aldrich) and was followed by a wash with PBS. Anti-pH2AX primary antibodies are used at a concentration of 1:800. The incubations with anti-mouse FITC or anti-rabbit TRITC secondary antibodies (1:100, supplied by Sigma Aldrich) were performed at 37° C. in 2% BSA for 20 minutes. Glass coverslips were treated with Vectashield™ containing DAPI (4,6-Diamidino-2-phenylindole) to label the nucleus. Staining with DAPI also makes it possible, indirectly, to determine the number of cells in phase G1 (nuclei with homogenous DAPI staining), in phase S (nuclei with numerous pH2AX foci), in phase G2 (nuclei with heterogeneous DAPI staining) and metaphases (visible chromosomes).
# (§4) Counterstaining with DAPI (a DNA marker known to those skilled in the art) makes it possible to locate the nucleus to situate the cytoplasmic or nuclear location to quantify the micronuclei, which are complementary cell markers to the data on the foci.
# The tables hereinafter summarize the results of numerous experiments which were carried out as described in the “Detailed description” section above. […]
# 1BR3 (control cells) = assay: pH2AX foci immunofluorescence 24 h after contacting, 1BR3 control fibroblasts; conditions: for pH2AX(24) + 2xSEM / pH2AX(24): 1BR3; for pH2AX(24) + 2xSEM: 24 hours; for pH2AX(24): 24 hours after contacting
# Experimental: as §1, §2, §3
# (§5) The results are acquired using these coverslips on an immunofluorescence microscope (Olympus model for example). The reading may be direct (typically by counting the foci on at least 50 cells in G0/G1 for each point) or using dedicated image analysis software, or on an automated microscope; preferably the software or automated microscope methods are calibrated with manual determinations.
# (§6) Commercial 1BR3 and 149 BR control fibroblasts were amplified according to the recommendations of the supplier (SIGMA-ALDRICH) until the number of cells sought was obtained. After obtaining a sufficient number of cells (generally after one to 3 weeks), the first experiments were conducted using the process according to the invention. The cells were inoculated on glass coverslips in Petri dishes.
# (§7) The acquisition of the results was carried out using these coverslips on an immunofluorescence microscope (Olympus model). The reading was performed directly by counting the foci obtained with the marker pH2AX on at least 50 cells in G0/G1 for each point or using dedicated image analysis software (imageJ). […]
# 149BR (control cells) = assay: pH2AX foci immunofluorescence 24 h after contacting, 149BR control fibroblasts; conditions: for pH2AX(24) + 2xSEM / pH2AX(24): 149BR; for pH2AX(24) + 2xSEM: 24 hours; for pH2AX(24): 24 hours after contacting
# Experimental: as §1, §2, §3, §5, §6, §7
# 04PSL cells [3] = assay: pH2AX foci immunofluorescence 24 h after contacting, 04PSL patient skin cell line; conditions: for pH2AX: 24 hours after contacting (Table 3); for pH2AX(24) + 2xSEM: 24 hours; for pH2AX(24 h): 24 hours after contacting (Table 1)
# Experimental: as §3
# A skin cell sample from a patient was sampled by biopsy via the “skin punch” method known to those skilled in the art. The cell sample was then placed in DMEM medium+20% sterile fetal calf serum. The cell sample was then transferred without delay to a specialized laboratory, so that the sample remained not more than 38 hours at ambient temperature.
# On receipt, the cell sample from the biopsy was established in the form of an amplifiable 04PSL cell line according to a procedure well known to culture laboratories and those skilled in the art: using particularly the trypsin dispersion, the cells are once again diluted in replenished medium and so on until the number of cells sought is obtained. […] The 04PSL line cells were inoculated on glass coverslips in Petri dishes.
# The acquisition of the results was carried out using these coverslips on an immunofluorescence microscope (Olympus model). The reading was performed directly by counting the foci obtained with the marker pH2AX on at least 50 cells in G0/G1 for each point or using dedicated image analysis software (imageJ).
# In order to obtain results of sufficient statistical reliability to serve as a basis for diagnosis, 3 independent series of experiments were performed.
# (§8) In tables 3 and 4, “pH2AX” corresponds to the mean number of nuclear foci obtained with the marker pH2AX, 24 hours after contacting the cell sample with the chemical agent at the concentration C (NpH2AX(24 h, C)), and where “Micronuclei” corresponds to the mean number of micronuclei observed per 100 cells 24 hours after contacting the cell sample with the chemical agent at the concentration C(NMN(24 h, C)).
# 04PSL cells [4] = assay: Micronuclei per 100 cells (DAPI) 24 h after contacting, 04PSL
# Experimental: as §1, §3, §4
# The tables hereinafter summarize the results of numerous experiments which were carried out as described in the “Detailed description” section above.
# as §8
smiles,measurement,setting,value
CC1(C)C(C=C(Cl)Cl)C1C(=O)OCc1cccc(Oc2ccccc2)c1 (stereo not drawn) [Permethrin],pH2AX,01PAU cells [1]; 0.3 μM,0.1 foci
same,pH2AX,01PAU cells [1]; 1 μM,0.2 foci
same,pH2AX,01PAU cells [1]; 5 μM,1.3 foci
same,pH2AX,01PAU cells [1]; 10 μM,1.8 foci
same,Micronuclei,01PAU cells [2]; 0.3 μM,2 per 100 cells
same,Micronuclei,01PAU cells [2]; 1 μM,2 per 100 cells
same,Micronuclei,01PAU cells [2]; 5 μM,4 per 100 cells
same,Micronuclei,01PAU cells [2]; 10 μM,6 per 100 cells
O=C(O)CNCP(=O)(O)O [glyphosate],pH2AX(24) + 2xSEM,1BR3 (control cells); glyphosate 3 μM,1.856 foci
same,pH2AX(24),1BR3 (control cells); glyphosate 3 μM,1.6 foci
same,pH2AX(24) + 2xSEM,1BR3 (control cells); glyphosate 10 μM,1.856 foci
same,pH2AX(24),1BR3 (control cells); glyphosate 10 μM,1.6 foci
same,pH2AX(24) + 2xSEM,1BR3 (control cells); glyphosate 30 μM,2.204 foci
same,pH2AX(24),1BR3 (control cells); glyphosate 30 μM,1.9 foci
same,pH2AX(24) + 2xSEM,1BR3 (control cells); glyphosate 100 μM,2.32 foci
same,pH2AX(24),1BR3 (control cells); glyphosate 100 μM,2 foci
same,pH2AX(24) + 2xSEM,1BR3 (control cells); glyphosate 300 μM,2.668 foci
same,pH2AX(24),1BR3 (control cells); glyphosate 300 μM,2.3 foci
same,"reference concentration Cref defined by NpH2AX(24 h, Cref)+2σ=2",1BR3 (control cells); control cell line 1BR3,100 µM
same,pH2AX(24) + 2xSEM,149BR (control cells); glyphosate 3 μM,0.928 foci
same,pH2AX(24),149BR (control cells); glyphosate 3 μM,0.8 foci
same,pH2AX(24) + 2xSEM,149BR (control cells); glyphosate 10 μM,1.16 foci
same,pH2AX(24),149BR (control cells); glyphosate 10 μM,1 foci
same,pH2AX(24) + 2xSEM,149BR (control cells); glyphosate 30 μM,1.74 foci
same,pH2AX(24),149BR (control cells); glyphosate 30 μM,1.5 foci
same,pH2AX(24) + 2xSEM,149BR (control cells); glyphosate 100 μM,2.088 foci
same,pH2AX(24),149BR (control cells); glyphosate 100 μM,1.8 foci
same,pH2AX(24) + 2xSEM,149BR (control cells); glyphosate 300 μM,3.48 foci
same,pH2AX(24),149BR (control cells); glyphosate 300 μM,3 foci
same,"reference concentration Cref defined by NpH2AX(24 h, Cref)+2σ=2",149BR (control cells); control cell line 149BR,100 µM
same,pH2AX,04PSL cells [3]; 3 μM,1.7 foci
same,pH2AX,04PSL cells [3]; 10 μM,1.9 foci
same,pH2AX,04PSL cells [3]; 30 μM,4.8 foci
same,pH2AX,04PSL cells [3]; 100 μM,6.5 foci
same,pH2AX,04PSL cells [3]; 300 μM,8.7 foci
same,pH2AX(24) + 2xSEM,04PSL cells [3]; glyphosate 3 μM,1.972 foci
same,pH2AX(24 h),04PSL cells [3]; glyphosate 3 μM,1.7 foci
same,pH2AX(24) + 2xSEM,04PSL cells [3]; glyphosate 10 μM,2.088 foci
same,pH2AX(24 h),04PSL cells [3]; glyphosate 10 μM,1.8 foci
same,pH2AX(24) + 2xSEM,04PSL cells [3]; glyphosate 30 μM,4.756 foci
same,pH2AX(24 h),04PSL cells [3]; glyphosate 30 μM,4.1 foci
same,pH2AX(24) + 2xSEM,04PSL cells [3]; glyphosate 100 μM,6.96 foci
same,pH2AX(24 h),04PSL cells [3]; glyphosate 100 μM,6 foci
same,pH2AX(24) + 2xSEM,04PSL cells [3]; glyphosate 300 μM,9.744 foci
same,pH2AX(24 h),04PSL cells [3]; glyphosate 300 μM,8.4 foci
same,number of pH2AX foci,"04PSL cells [3]; glyphosate concentration of 100 μM, 24 h",approximately 7 foci
same,Micronuclei,04PSL cells [4]; 3 μM,6 per 100 cells
same,Micronuclei,04PSL cells [4]; 10 μM,4 per 100 cells
same,Micronuclei,04PSL cells [4]; 30 μM,10 per 100 cells
same,Micronuclei,04PSL cells [4]; 150 μM,12 per 100 cells
same,Micronuclei,04PSL cells [4]; 300 μM,14 per 100 cells
